Results reported in patent US6258806A, “Amine derivatives of oxo- and hydroxy- substituted hydrocarbons” (Narhex Limited, priority 1992, dated 2001).

Columns and labels:
[1] = system: Human Immunodeficiency Virus type 1 (HIV) strain #237228 in MT2 cells; test: Anti-HIV-1 antiviral activity in acutely infected MT2 cells (CPE and RT activity); format: cell-based; conditions: for IC80: Human immunodeficiency virus 1, printed in the IC100 column with footnote (b) IC80; for antiviral index (Al), MT2 cells: only non-toxic concentrations used, 8640 min; for IC100: Human immunodeficiency virus 1, 144 h, acute HIV-1 infection, day 6, concentration at which virus replication is inhibited (CPE negative or ±, >95% inhibition of RT activity)
Text: (§1) The antiviral activity of representative compounds of the present invention has been determined at the Antivirals Laboratory, Fairfield Hospital, Fairfield, Victoria, Australia. In this test a stock solution of each compound was made in DMSO, then diluted in culture medium (RF 10) to 2× the final concentration required for test. The final concentration of DMSO was 1% or below. Approximately 250,000 continuous lymphocytes of human origin (MT2 cells) or 750,000 human peripheral blood lymphocytes (PBLs) were exposed to dilutions of each test compound, then immediately infected with Human Immunodeficiency Virus type 1 (HIV) strain #237228 (a clinical isolate obtained from a human source). The infectivity titers were expressed as tissue culture 50% infective dose (TCID50 per ml) with 1 TCID50 corresponding to the amount of supernatant required to infect 50% of the replicate cell cultures. The 250 and 200 TCID50 were used for MT2 and PBL cells respectively. The cell/drug/virus mixture was then incubated at 37° C./CO2 in a 24-well microtitre plate. Fresh amounts of the appropriate dilution of each drug were added to both MT2 and PBL cultures at day 3. At day 6, the extent of HIV-specific cytopathic effects (CPE) associated with each concentration of test compound in each of the cultures was rated according to the following scale:
(§2) 4+: 75-100% of cells showing 3+: good CPE
(§3) 3+: 50-75% of cells showing 2+: moderate CPE
(§4) 2+: 25-50% of cells showing 1+: low CPE
(§5) 1+: 5-25% of cells showing trace: minimal CPE
(§6) +/-: less than 5% CPE Negative: no CPE
(§7) The activity of the compounds at each concentration was also assessed by their ability to inhibit viron-associated reverse transcriptase (RT) activity in the culture supernates. At the time of rating of CPE, supernatant fluids from each well were removed and RT activity measured using a standard assay. CPE ratings of negative, ± (in MT2 cells) or trace (in PBLs), with greater than 95% inhibition of RT activity, was considered to represent IC100 (the concentration of compound at which the virus replication is inhibited). Control cultures included in each test were:
(§8) (a) HIV-infected cells in the absence of test compound.
(§9) (b) Uninfected cells in the absence of tested compound.
(§10) (c) Cell toxicity control consisting of uninfected cells treated with dilutions of test compound.
(§11) At the conclusion of each experiment, viable cells in these cultures, as determined by tryptan blue exclusion, were compared with the counts obtained in (b), above.

[2] = system: Human Immunodeficiency Virus type 1 (HIV) strain #237228 in human peripheral blood lymphocytes (PBLs); test: Anti-HIV-1 antiviral activity in acutely infected peripheral blood lymphocytes (CPE and RT activity); format: cell-based, Human Immunodeficiency Virus type 1 (HIV); human cells; conditions: for IC100: Human immunodeficiency virus 1, 144 h, PBL cells, acute HIV-1 infection, day 6, concentration at which virus replication is inhibited (CPE negative or trace, >95% inhibition of RT activity); for antiviral index (Al), PBL cells: only non-toxic concentrations used, 8640 min
Text: as §1, §2, §3, §4, §5, §6, §7, §8, §9, §10, §11

[3] = molecular target: HIV-1 protease (Human immunodeficiency virus type 1 group M subtype B, UniProt P04585); test: HIV-1 protease-inhibiting activity; format: biochemical; conditions: half-maximal inhibition of HIV-1 protease
Text: The HIV protease-inhibiting activity of representative compounds of the present invention has been tested by known methods (Brinkworth, R. I., et al., Biochem. Biophys. Res. Commun. 176, 241, (1991); McLeod, D. A., et al., Bioorganic & Medicinal Chemistry Letters (1991) 653-658).

Structure (SMILES) | IC80 [1] [nM] | antiviral index (Al), MT2 cells [1] | IC100 [2] [µM] | antiviral index (Al), PBL cells [2] | IC50 ([1]; Human immunodeficiency virus 1, printed in the IC100 column with footnote (a) IC50) [µM] | IC100 [1] [µM] | IC50 [3] [nM]
CC(C)(C)OC(=O)N1CC2CCCCC2CN1C[C@H](O)[C@H](Cc1ccccc1)NC(=O)[C@H](CC(N)=O)NC(=O)c1ccc2ccccc2n1 (single isomer, unassigned) [Compound 2b.A] | 10 | 100 | 0.01 | 1000 |  |  | 
CC(C)(C)OC(=O)N1CC2CCCCC2CN1CC(O)[C@H](Cc1ccccc1)NC(=O)OCc1ccccc1 (stereo partly drawn) [Compound 1, cis-1,6-3-t-Butoxycarbonyl-4-[(2RS,3S)-2-hydroxy-3-(phenylmethoxycarbonyl)amino-4-phenylbutyl]-3,4-diaza-bicyclo-[4.4.0]decane] |  | 1 |  |  | 10 |  | 
CC(C)(C)OC(=O)N1CC2CCCCC2CN1C[C@H](O)[C@H](Cc1ccccc1)NC(=O)[C@H](CC(N)=O)NC(=O)c1ccc2ccccc2n1 (stereo partly drawn) [Compound 2b, cis-1,6-3-t-Butoxycarbonyl-4-[(2S, 3S)-2-hydroxy-3-(N-quinaldyl-L-asparaginyl)amino-4-phenylbutyl]-3,4-diaza-bicyclo[4.4.0]decane] |  | 50 | 0.1 | 100 |  | 0.1 | 
CC(C)[C@H](NC(=O)c1ccc2ccccc2n1)C(=O)N[C@@H](Cc1ccccc1)C(O)CN1CC2CCCCC2CN1C(=O)OC(C)(C)C (stereo partly shown) [Compound 3] |  | 5 | 1 | 5 |  | 1 | 
CC(C)(C)OC(=O)N1CC2CCCCC2CN1CC(O)[C@H](Cc1ccccc1)NC(=O)[C@H](CCC(N)=O)NC(=O)c1ccc2ccccc2n1 (stereo partly drawn) [Compound 4, cis-1,6-3-t-Butoxycarbonyl-4-[(2RS,3S)-2-hydroxy-3-(N-quinaldyl-L-glutaminyl)amino-4-phenylbutyl]-3,4-diaza-bicyclo[4.4.0]decane] |  | 10 | 1 | 10 |  | 1 | 
C[C@@H](O)[C@H](NC(=O)c1ccc2ccccc2n1)C(=O)N[C@@H](Cc1ccccc1)C(O)CN1CC2CCCCC2CN1C(=O)OC(C)(C)C (stereo partly drawn) [Compound 5, cis-1,6-3-t-Butoxycarbonyl-4-[(2RS,3S)-2-hydroxy-3-(N-quinaldyl-L-threonyl)amino-4-phenylbutyl]-3,4-diaza-bicyclo[4.4.0]decane] |  | < 10 | 1 | < 10 |  | 1 | 
CC(C)[C@H](NC(=O)OCc1ccccn1)C(=O)N[C@@H](Cc1ccccc1)C(O)CN1CC2CCCCC2CN1C(=O)OC(C)(C)C (stereo partly drawn) [Compound 6, cis-1,6-3-t-Butoxycarbonyl-4-[(2RS,3S)-2-hydroxy-3-[N-(2-pyridyl)methoxycarbonyl-L-valyl]amino-4-phenylbutyl]-3,4-diaza-bicyclo[4.4.0]decane] |  | < 5 | 1 | < 5 |  | 1 | 
CC(C)[C@H](NC(=O)c1ccc2ccccc2n1)C(=O)N[C@@H](Cc1ccccc1)[C@H](O)CN(NC(=O)OC(C)(C)C)C(C)C [Compound 9, t-Butyl 3-Isopropyl-3-[(2R,3S)-2-hydroxy-3-(N-quinaldyl-L-valyl)amino-4-phenylbutyl]carbazate] |  | 4 |  |  |  | 5 | 
CC(C)[C@H](NC(=O)OCc1ccccn1)C(=O)N[C@@H](Cc1ccccc1)C(O)CN1C2CCC(C2)N1C(=O)OC(C)(C)C (stereo partly drawn) [Compound 10, 2-t-Butoxycarbonyl-3-[(2RS, 3S)-2-hydroxy-3-[N-(2-pyridyl)-methoxycarbonyl-L-valyl]amino-4-phenylbutyl]-2,3-diaza-bicyclo[2.2.1]-heptane] |  | 1 |  |  |  | 25 | 3300 ± 650
CC(C)(C)OC(=O)N1Cc2ccccc2CN1CC(O)[C@H](Cc1ccccc1)NC(=O)[C@H](CC(N)=O)NC(=O)c1ccc2ccccc2n1 (stereo partly drawn) [Compound 11, 2-t-Butoxycarbonyl-3-[(2RS, 3S)-2-hydroxy-3-(N-quinaldyl-L-asparaginyl)amino-4-phenylbutyl]-1,2,3,4-tetrahydrophthalazine] |  | > 10 |  |  |  | 1 | 12.5 ± 3.2
CC(CCc1ccccc1)N(C[C@@H](O)[C@H](Cc1ccccc1)NC(=O)[C@H](CC(N)=O)NC(=O)c1ccc2ccccc2n1)NC(=O)OC(C)(C)C (stereo partly shown) [Compound 12] | 1000 | 10 |  |  |  |  | 
CC(C)N(C[C@H](O)[C@H](Cc1ccccc1)NC(=O)[C@H](CC(N)=O)NC(=O)c1ccc2ccccc2n1)NC(=O)C(C)(C)C [Compound 13, 1-Trimethylacetyl-2-[(2S,3S)-2-hydroxy-3-(N-quinaldyl-L-asparaginyl)amino-4-phenylbutyl]-2-isopropylhydrazine] |  | 50 | 1 | > 50 |  | 1 | 
CC(C)N(C[C@H](O)[C@H](Cc1ccccc1)NC(=O)[C@H](CC(N)=O)NC(=O)c1ccc2ccccc2n1)NC(=O)NC(C)(C)C [Compound 14, 1-(t-Butylamino)carbonyl-2-[(2S,3S)-2-hydroxy-3-(N-quinaldyl-L-asparaginyl)amino-4-phenylbutyl]-2-isopropylhydrazine] |  | 50 | 1 | > 50 |  | 1 | 
CC(C)N(C[C@H](O)[C@H](Cc1ccccc1)NC(=O)[C@H](CC(N)=O)NC(=O)c1ccccn1)NC(=O)OC(C)(C)C [Compound 15, t-Butyl 3-isopropyl-3-[(2S,3S)-2-hydroxy-3-(N-picolinyl-L-asparaginyl)amino-4-phenylbutyl]carbazate] |  | 100 | 1 | 200 |  | 1 | 
CC(C)(C)OC(=O)NN(Cc1ccccc1)C[C@H](O)[C@H](Cc1ccccc1)NC(=O)[C@H](CC(N)=O)NC(=O)c1ccc2ccccc2n1 [Compound 16, t-Butyl 3-benzyl-3-[(2S,3S)-2-hydroxy-3-(N-quinaldyl-L-asparaginyl)amino-4-phenylbuty]carbazate] |  | 100 | 1 | 1 |  | 1 | 
CC(C)N(C[C@H](O)[C@H](Cc1ccccc1)NC(=O)[C@H](CC(N)=O)NC(=O)c1ccccc1)NC(=O)OC(C)(C)C [Compound 18, t-Butyl 3-isopropyl-3-[(2S,3S)-2-hydroxy-3-(N-benzoyl-L-asparaginyl)amino-4-phenylbutyl]carbazate] |  | 10 | 1 | > 150 |  | 1 | 
CC(C)(C)OC(=O)N1CCCCN1C[C@H](O)[C@H](Cc1ccccc1)NC(=O)[C@H](CC(N)=O)NC(=O)c1ccc2ccccc2n1 [Compound 19, 1-t-Butyloxycarbonyl-2-[(2S,3S)-2-hydroxy-3-(N-quinaldyl-L-asparaginyl)amino-4-phenylbutyl]hexahydropyridazine] |  | 10 | 0.1 | 200 |  | 1 | 
CC(C)(C)OC(=O)N1CC2CCCCC2CN1C[C@H](O)[C@H](Cc1ccccc1)NC(=O)[C@H](CC#N)NC(=O)c1ccc2ccccc2n1 (stereo partly drawn) [Compound 20, cis-1,6-3-t-Butoxycarbonyl-4-[(2S,3S)-2-hydroxy-3-(N-quinaldyl-3-cyano-L-alanyl)amimo-4-phenylbutyl]-3,4-diaza-bicyclo[4.4.0]decane] |  | 10 | 1 | 10 |  | 1 | 
